Test [1] relates to phospho-SLP-76 (Ser376) in Jurkat cells. Briefly: Phospho-SLP-76 (Ser376) Homogeneous Time Resolved Fluorescence (HTRF) assay in Jurkat cells. The format is cell-based. Conditions: Homo sapiens, Phospho-SLP-76 (Ser376) HTRF, anti-CD3 stimulation, read-out: SLP76 Assay_IC50. In outline:
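Phospho-SLP-76 in lysates was read by sandwich HTRF and IC50 derived by four-parameter nonlinear regression. Before lysis, cells had received compound for 30 min (11-point, 3-fold series from 10 μM, 0.1% DMSO), followed by anti-CD3 F(ab)2 complex (200 μg/mL, 15 min, 37 °C).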
(Time-resolved FRET reads energy transfer from a long-lived donor to a nearby acceptor.)

In test [2] the target is human full-length recombinant HPK1 (Homo sapiens (Human), UniProt Q92918). In words: HPK1 biochemical enzyme assay, microfluidic mobility shift assay (MSA). The note with it: HPK1 mobility shift assay; read-out: HPK1 Enzyme Assay_Ki.
human full-length recombinant HPK1, sequence (Q92918 whole entry): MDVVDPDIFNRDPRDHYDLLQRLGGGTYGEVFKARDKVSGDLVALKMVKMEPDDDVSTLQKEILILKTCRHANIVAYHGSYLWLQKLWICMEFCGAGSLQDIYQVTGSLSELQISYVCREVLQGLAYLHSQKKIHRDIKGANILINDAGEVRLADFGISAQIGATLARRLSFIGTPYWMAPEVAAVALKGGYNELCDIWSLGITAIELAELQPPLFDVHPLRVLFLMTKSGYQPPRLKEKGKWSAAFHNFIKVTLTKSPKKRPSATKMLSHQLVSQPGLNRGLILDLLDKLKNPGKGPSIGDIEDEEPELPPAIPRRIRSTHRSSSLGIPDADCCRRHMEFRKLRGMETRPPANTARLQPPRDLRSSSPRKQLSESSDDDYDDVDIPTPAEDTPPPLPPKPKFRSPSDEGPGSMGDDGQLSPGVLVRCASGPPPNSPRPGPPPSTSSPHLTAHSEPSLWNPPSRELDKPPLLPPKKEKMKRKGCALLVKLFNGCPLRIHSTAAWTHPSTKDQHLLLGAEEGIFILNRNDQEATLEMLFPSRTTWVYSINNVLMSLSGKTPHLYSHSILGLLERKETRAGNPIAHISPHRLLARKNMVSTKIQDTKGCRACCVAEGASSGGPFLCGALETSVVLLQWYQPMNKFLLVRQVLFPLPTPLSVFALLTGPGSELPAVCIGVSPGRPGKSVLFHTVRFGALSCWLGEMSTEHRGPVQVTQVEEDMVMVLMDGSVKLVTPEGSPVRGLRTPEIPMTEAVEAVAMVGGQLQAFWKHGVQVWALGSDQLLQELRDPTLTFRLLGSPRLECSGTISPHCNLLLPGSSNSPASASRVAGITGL

With `CCC(CC)n1cnnc1-c1cccc(N2Cc3c(cc(C4CC4)nc3CNC)C2=O)n1` [Example 142, 6-cyclopropyl-4-[(methylamino)methyl]-2-{6-[4-(pentan-3-yl)-4H-1,2,4-triazol-3-yl]pyridin-2-yl}-2,3-dihydro-1H-pyrrolo[3,4-c]pyridin-1-one], the IC50 in test [1] came to 239 nM. For the same molecule, the Ki in test [2] turned out to be 0.52 nM.
The matching figures for `CCC(CC)n1cnnc1-c1cccc(N2Cc3c(cc(N4CCC[C@H]4C)nc3CN)C2=O)n1` [Example 143, 4-(aminomethyl)-6-[(2R)-2-methylpyrrolidin-1-yl]-2-{6-[4-(pentan-3-yl)-4H-1,2,4-triazol-3-yl]pyridin-2-yl}-2,3-dihydro-1H-pyrrolo[3,4-c]pyridin-1-one]: 28 nM and 0.09 nM.
As for `CCC(CC)n1cnnc1-c1cccc(N2Cc3c(cc(N4CCC[C@H]4C)nc3CNC)C2=O)n1` [Example 144, 4-[(methylamino)methyl]-6-[(2R)-2-methylpyrrolidin-1-yl]-2-{6-[4-(pentan-3-yl)-4H-1,2,4-triazol-3-yl]pyridin-2-yl}-2,3-dihydro-1H-pyrrolo[3,4-c]pyridin-1-one], the IC50 in test [1] was 15 nM. In addition, the Ki in test [2] was less than 0.05 nM.
Turning to `CCN(c1cc2c(c(CN)n1)CN(c1cccc(-c3nncn3C(C)C)n1)C2=O)C(C)C` [Example 145, 4-(aminomethyl)-6-[ethyl(propan-2-yl)amino]-2-{6-[4-(propan-2-yl)-4H-1,2,4-triazol-3-yl]pyridin-2-yl}-2,3-dihydro-1H-pyrrolo[3,4-c]pyridin-1-one], in test [1], the IC50 stood at 61 nM. Further, the Ki in test [2] turned out to be 0.47 nM.
The like results for `CCCn1cnnc1-c1cccc(N2Cc3c(cc(N(CC)C(C)C)nc3CN)C2=O)n1` [Example 146, 4-(aminomethyl)-6-[ethyl(propan-2-yl)amino]-2-[6-(4-propyl-4H-1,2,4-triazol-3-yl)pyridin-2-yl]-2,3-dihydro-1H-pyrrolo[3,4-c]pyridin-1-one] were, in that order, 106 nM and 0.91 nM.
`CCC(CC)n1cnnc1-c1cccc(N2Cc3c(cc(N(C)C(C)C)nc3CN)C2=O)n1` [Example 150]: the IC50 in test [1] worked out at 33 nM. Further, in test [2], the Ki was 0.06 nM.
The matching figures for `CCC(CC)n1cnnc1-c1cccc(N2Cc3c(cc(N4CCCC4(C)C)nc3CN)C2=O)n1` [Example 151]: 14 nM and 0.1 nM.
Take `CCC(CC)n1cnnc1-c1cccc(N2Cc3c(cc(N4CCC[C@@H]4C)nc3CN)C2=O)n1` [Example 152]: in test [1], the IC50 came to 46 nM. Further, in test [2], the Ki is 0.12 nM.
The matching figures for `CCC(CC)n1cnnc1-c1cccc(N2Cc3c(cc(N(C)CC)nc3CN)C2=O)n1` [Example 153]: 65 nM and 0.14 nM.
The matching figures for `CCn1c(C)nnc1-c1cccc(N2Cc3c(cc(N4CCCC4(C)C)nc3CN)C2=O)n1` [Example 154]: 151 nM and 0.15 nM.
Turning to `CCCn1c(C)nnc1-c1cccc(N2Cc3c(cc(N4CCCC4(C)C)nc3CN)C2=O)n1` [Example 155], the IC50 in test [1] is 55 nM. In test [2], the Ki was 0.16 nM.
For `Cc1nnc(-c2cccc(N3Cc4c(cc(N5CCC[C@H]5C)nc4CN)C3=O)n2)n1C(C)C` [Example 156], the IC50 in test [1] came out at 104 nM. Moreover, the Ki in test [2] turned out to be 0.19 nM.
The matching figures for `CCn1c(C)nnc1-c1cccc(N2Cc3c(cc(N4CCC[C@@H]4C)nc3CN)C2=O)n1` [Example 157]: 85 nM and 0.23 nM.
The like results for `CCn1c(C)nnc1-c1cccc(N2Cc3c(cc(N(C)C(C)C)nc3CN)C2=O)n1` [Example 158] were, in that order, 83 nM and 0.38 nM.
The like results for `CCN(C)c1cc2c(c(CN)n1)CN(c1cccc(-c3nnc(C)n3C(C)C)n1)C2=O` [Example 160] were, in that order, 272 nM and 0.48 nM.
With `CCCn1c(C)nnc1-c1cccc(N2Cc3c(cc(N(C)CC)nc3CN)C2=O)n1` [Example 161], the IC50 in test [1] worked out at 217 nM. For the same molecule, in test [2], the Ki worked out at 0.68 nM.
Take `Cc1nnc(-c2cccc(N3Cc4c(cc(N5CCC[C@@H]5C)nc4CN)C3=O)n2)n1C(C)C` [Example 162]: the IC50 in test [1] stood at 136 nM. The Ki in test [2] is 0.76 nM.
For the molecule `CCN(CC)c1cc2c(c(CN)n1)CN(c1cccc(-c3nnc(C)n3CC)n1)C2=O` [Example 163], the IC50 in test [1] stood at 196 nM. Also, the Ki in test [2] came to 0.88 nM.
In the case of `Cc1nnc(-c2cccc(N3Cc4c(cc(N(C)C(C)C)nc4CN)C3=O)n2)n1C(C)C` [Example 165], the IC50 in test [1] turned out to be 114 nM. Also, the Ki in test [2] was found to be 0.28 nM.
For the molecule `CCC(CC)n1cnnc1-c1cccc(N2Cc3c(cc(N(CC)C(C)C)nc3CN)C2=O)n1` [Example 166], the IC50 in test [1] came to 104 nM. Besides, the Ki in test [2] stood at 0.5 nM.
The matching figures for `CCN(c1cc2c(c(CN)n1)CN(c1cccc(-c3nnc(C)n3CC)n1)C2=O)C(C)C` [Example 167]: 391 nM and 0.7 nM.
The matching figures for `CCn1c(C)nnc1-c1cccc(N2Cc3c(cc(N4[C@H](C)CC[C@H]4C)nc3CN)C2=O)n1` [Example 168]: 300 nM and 0.76 nM.
`Cc1nnc(-c2cccc(N3Cc4c(cc(N5[C@H](C)CC[C@H]5C)nc4CN)C3=O)n2)n1C(C)C` [Example 169]: the IC50 in test [1] was 179 nM. Further, the Ki in test [2] worked out at 0.95 nM.
Take `CCCn1c(C)nnc1-c1cccc(N2Cc3c(cc(N(CC)CC)nc3CN)C2=O)n1` [Example 170]: in test [1], the IC50 was determined as 264 nM. In addition, the Ki in test [2] was found to be 0.36 nM.
`CCN(C)c1cc2c(c(CN)n1)CN(c1cccc(-c3nnc(C)n3CC)n1)C2=O` [Example 171]: in test [1], the IC50 worked out at 180 nM. Also, in test [2], the Ki was determined as 0.34 nM.
Take `CCCn1c(C)nnc1-c1cccc(N2Cc3c(cc(N(C)C(C)C)nc3CN)C2=O)n1` [Example 172]: the IC50 in test [1] is 85 nM. Also, in test [2], the Ki came out at 0.55 nM.
Turning to `CC[C@H](C)n1cnnc1-c1cccc(N2Cc3c(cc(N(C)CC)nc3CNC)C2=O)n1` [Example 173], the IC50 in test [1] stood at 43 nM. Further, the Ki in test [2] is 0.06 nM.
As to `CN(C)c1cc2c(c(CN)n1)CN(c1cccc(N3C(=O)OC[C@@H]3CF)n1)C2=O` [Example 174], the IC50 in test [1] was 207 nM. Besides, the Ki in test [2] worked out at 0.37 nM.
For `CCCn1c(CC)nnc1-c1cccc(N2Cc3c(cc(N4CCC[C@H]4C)nc3CNC)C2=O)n1` [Example 175], in test [1], the IC50 worked out at 185 nM. For the same molecule, the Ki in test [2] was found to be 0.94 nM.
The matching figures for `CNCc1nc(N(C)C)cc2c1CN(c1cccc(-c3nncn3CC(C)C)n1)C2=O` [Example 177]: 152 nM and 0.26 nM.
Consider `CCc1nnc(-c2cccc(N3Cc4c(cc(N5CCC[C@H]5C)nc4CN)C3=O)n2)n1CC` [Example 185], for which the IC50 in test [1] was determined as 136 nM. Moreover, the Ki in test [2] stood at 0.79 nM.

Source of the values: US11142525B2 (Pfizer Inc., priority 2018, dated 2021).
